Data taken from patent publication USRE47221E1, “Tricyclic compounds” (AbbVie Inc., priority 2009, dated 2019).

Biological target: T1, Jak3 (Homo sapiens, UniProt P52333)
T1 construct: Jak3 enzyme (aa 811-1103); expressed in SF9 cells as a GST fusion; GST; made in house; host or cells: SF9 insect cells
Assay: Jak3 enzyme data for selected compounds
Format: biochemical

T1 sequence (P52333 811-1103): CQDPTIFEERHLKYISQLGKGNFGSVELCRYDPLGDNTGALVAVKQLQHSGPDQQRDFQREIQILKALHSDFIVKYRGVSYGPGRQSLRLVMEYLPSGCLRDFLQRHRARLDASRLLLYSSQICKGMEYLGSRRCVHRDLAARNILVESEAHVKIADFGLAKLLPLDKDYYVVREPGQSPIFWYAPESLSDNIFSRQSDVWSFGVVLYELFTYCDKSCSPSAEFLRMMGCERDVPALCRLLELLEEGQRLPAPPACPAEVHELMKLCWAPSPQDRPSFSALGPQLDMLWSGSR

An IC50 of less than 0.1 µM was found for `C[C@@H]1CCN(C(=O)C2CCS(=O)(=O)C2)C[C@@H]1c1ncc2cnc3[nH]ccc3n12` (mixture of isomers) [H.1.29] in this work.
An IC50 of 0.1 to 1 µM was found for `CC[C@@H]1C[C@H](OCc2ccc(OC)cc2)C[C@H]1c1nnc2cnc3[nH]ccc3n12` (racemic) [D.1.38] in this work.
An IC50 greater than 1 µM was found for `C[C@H]1CCN(S(=O)(=O)CCC(F)(F)F)C[C@@H]1Nc1ncc2cnc3[nH]ccc3n12` (racemic) [D.1.66] in this work.
An IC50 greater than 1 µM was found for `O=S(=O)(CCC(F)(F)F)N1CCC[C@H]2[C@H]1CCN2c1ncc2cnc3[nH]ccc3n12` (racemic) [D.1.69] in this work.
An IC50 greater than 1 µM was found for `CC[C@@H]1C[C@@H](Oc2ccc(C#N)cn2)C[C@H]1c1nnc2cnc3[nH]ccc3n12` (racemic) [D.2.10] in this work.
An IC50 of 0.1 to 1 µM was found for `CC[C@@H]1C[C@@H](Oc2ccc(C#N)cn2)C[C@@H]1c1nnc2cnc3[nH]ccc3n12` (racemic) [D.2.22] in this work.
An IC50 of 0.1 to 1 µM was found for `C[C@@H]1CCN(C(=O)C2(C#N)CC2)C[C@@H]1c1ncc2cnc3[nH]ccc3n12` (racemic) [H.3.14] in this work.
An IC50 of less than 0.1 µM was found for `C[C@@H]1CCN(C(=O)N2CCCC2)C[C@@H]1c1ncc2cnc3[nH]ccc3n12` (racemic) [I.2.1] in this work.
An IC50 of less than 0.1 µM was found for `C[C@H]1CCN(C(=O)N(C)C)C[C@H]1c1ncc2cnc3[nH]ccc3n12` (racemic) [I.2.2] in this work.
An IC50 of less than 0.1 µM was found for `C[C@H]1CCN(C(=O)N2CC(C#N)C2)C[C@H]1c1ncc2cnc3[nH]ccc3n12` (racemic) [J.1.1] in this work.
An IC50 of less than 0.1 µM was found for `C[C@@H]1CCN(C(=O)N2CC[C@H](C#N)C2)C[C@@H]1c1ncc2cnc3[nH]ccc3n12` (racemic) [J.2.1] in this work.
An IC50 of less than 0.1 µM was found for `C[C@H]1CCN(C(=O)N2CC[C@@H](C)[C@@H](c3ncc4cnc5[nH]ccc5n34)C2)C1` (racemic) [J.2.10] in this work.
An IC50 of less than 0.1 µM was found for `C[C@@H]1CCN(c2cnc(C#N)cn2)C[C@@H]1c1ncc2cnc3[nH]ccc3n12` (racemic) [L.1.2] in this work.
An IC50 of less than 0.1 µM was found for `C[C@@H]1CCN(c2ncc(C#N)s2)C[C@@H]1c1ncc2cnc3[nH]ccc3n12` (racemic) [L.1.4] in this work.
An IC50 of 0.1 to 1 µM was found for `CC[C@@H]1C[C@H](Oc2cnc(C#N)cn2)C[C@@H]1c1nnc2cnc3[nH]ccc3n12` (relative stereo) [AA.1.37, 5-(3-ethyl-4-(6H-pyrrolo[2,3-e][1,2,4]triazolo[4,3-a]pyrazin-1-yl)cyclopentyloxy)pyrazine-2-carbonitrile] in this work.
An IC50 of less than 0.1 µM was found for `CC[C@@H]1C[C@@H](OCCC(F)(F)F)C[C@@H]1c1nnc2cnc3[nH]ccc3n12` (relative stereo) [AA.1.107, 1-(2-ethyl-4-(3,3,3-trifluoropropoxy)cyclopentyl)-6H-pyrrolo[2,3-e][1,2,4]triazolo[4,3-a]pyrazine] in this work.
An IC50 of 0.1 to 1 µM was found for `N#Cc1ccc(N[C@@H]2CC[C@@H](c3ncc4cnc5[nH]ccc5n34)C2)cc1` (single isomer, unassigned) [AA.1.3] in this work.
An IC50 of 0.1 to 1 µM was found for `CC[C@H]1C[C@H](NS(=O)(=O)C2CC2)C[C@@H]1c1nnc2cnc3[nH]ccc3n12` (single isomer, unassigned) [AA.1.5] in this work.
An IC50 of less than 0.1 µM was found for `O=C(N1CCC[C@@H](c2cnc3cnc4[nH]ccc4n23)C1)N1CC(F)(F)C1` (single isomer, unassigned) [AA.1.6, (3-(3H-imidazo[1,2-a]pyrrolo[2,3-e]pyrazin-8-yl)piperidin-1-yl)(3,3-difluoroazetidin-1-yl)methanone] in this work.
An IC50 of less than 0.1 µM was found for `O=C(N1CCC[C@@H](c2cnc3cnc4[nH]ccc4n23)C1)N1CCC(F)(F)C1` (single isomer, unassigned) [AA.1.8, (3-(3H-imidazo[1,2-a]pyrrolo[2,3-e]pyrazin-8-yl)piperidin-1-yl)(3,3-difluoropyrrolidin-1-yl)methanone] in this work.
An IC50 of 0.1 to 1 µM was found for `O=C(N1CCC(F)(F)CC1)N1CCC[C@@H](c2cnc3cnc4[nH]ccc4n23)C1` (single isomer, unassigned) [AA.1.9, (3-(3H-imidazo[1,2-a]pyrrolo[2,3-e]pyrazin-8-yl)piperidin-1-yl)(4,4-difluoropiperidin-1-yl)methanone] in this work.
An IC50 of less than 0.1 µM was found for `C[C@@H]1CCN(c2ncc(C#N)s2)C[C@@H]1c1ncc2cnc3[nH]ccc3n12` (single isomer, unassigned) [AA.1.11, 2-(-3-(6H-imidazo[1,5-a]pyrrolo[2,3-e]pyrazin-1-yl)-4-methylpiperidin-1-yl)thiazole-5-carbonitrile] in this work.
An IC50 of 0.1 to 1 µM was found for `C[C@@H]1C[C@H](Nc2cnc(C#N)cn2)C[C@@H]1c1cnc2cnc3[nH]ccc3n12` (single isomer, unassigned) [AA.1.16, 5-(3-(3H-imidazo[1,2-a]pyrrolo[2,3,-e]pyrazin-8-yl)-4-methylcyclopentylamino)pyrazine-2-carbonitrile] in this work.
An IC50 of less than 0.1 µM was found for `C[C@@H]1C[C@H](Nc2cnc(C#N)cn2)C[C@H]1c1cnc2cnc3[nH]ccc3n12` (single isomer, unassigned) [AA.1.18, 5-(3-(3H-imidazo[1,2-a]pyrrolo[2,3,-e]pyrazin-8-yl)-4-methylcyclopentylamino)pyrazine-2-carbonitrile] in this work.
An IC50 of less than 0.1 µM was found for `N#Cc1cnc(N2CCC[C@@H](c3cnc4cnc5[nH]ccc5n34)C2)s1` (single isomer, unassigned) [AA.1.22, 2-(3-(3H-imidazo[1,2-a]pyrrolo[2,3,-e]pyrazin-8-yl)piperidin-1-yl)thiazole-5-carbonitrile] in this work.
An IC50 of less than 0.1 µM was found for `CC[C@H]1C[C@@H](NS(=O)(=O)C2CC2)C[C@H]1c1cnc2cnc3[nH]ccc3n12` (single isomer, unassigned) [AA.1.25, N-(3-ethyl-4-(3H-imidazo[1,2-a]pyrrolo[2,3-e]pyrazin-8-yl)cyclopentyl)cyclopropanesulfonamide] in this work.
An IC50 greater than 1 µM was found for `CC[C@@H]1C[C@@H](Oc2ccc(C#N)cn2)C[C@@H]1c1nnc2cnc3[nH]ccc3n12` (single isomer, unassigned) [AA.1.29, 6-(3-ethyl-4-(6H-pyrrolo[2,3-e][1,2,4]triazolo[4,3-a]pyrazin-1-yl)cyclopentyloxy)-nicotinonitrile] in this work.
An IC50 of 0.1 to 1 µM was found for `CC[C@@H]1C[C@H](OCc2ccc(OC)cc2)C[C@H]1c1nnc2cnc3[nH]ccc3n12` (single isomer, unassigned) [AA.1.32, 1-(2-ethyl-4-(4-methoxybenzyloxy)cyclopentyl)-6H-pyrrolo[2,3-e][1,2,4]triazolo [4,3-a]pyrazine] in this work.
An IC50 of 0.1 to 1 µM was found for `CC[C@@H]1C[C@@H](Oc2cnc(C#N)cn2)C[C@@H]1c1nnc2cnc3[nH]ccc3n12` (single isomer, unassigned) [AA.1.33, 5-(3-ethyl-4-(6H-pyrrolo[2,3-e][1,2,4]triazolo[4,3-a]pyrazin-1-yl)cyclopentyloxy)pyrazine-2-carbonitrile] in this work.
An IC50 greater than 1 µM was found for `CC[C@H]1C[C@@H](COc2cnc(C#N)cn2)C[C@H]1c1nnc2cnc3[nH]ccc3n12` (single isomer, unassigned) [AA.1.42, 5-((cis-3-ethyl-4-(6H-pyrrolo[2,3-e][1,2,4]triazolo[4,3-a]pyrazin-1-yl)cyclopentyl)methoxy)-pyrazine-2-carbonitrile] in this work.
An IC50 of less than 0.1 µM was found for `CC[C@@H]1C[C@H](NS(=O)(=O)C2CC2)C[C@]1(F)c1nnc2cnc3[nH]ccc3n12` (single isomer, unassigned) [AA.1.43, N-(cis-4-ethyl-3-fluoro-3-(6H-pyrrolo[2,3-e][1,2,4]triazolo[4,3-a]pyrazin-1-yl)cyclopentyl)cyclo-propanesulfonamide] in this work.
